In ChEMBL document CHEMBL3994622, “Design and synthesis of new RAF kinase-inhibiting antiproliferative quinoline derivatives. Part 2: Diarylurea derivatives” (Eur J Med Chem, 2017):

Tests used:
Format in all cases: functional
UACC-62 = experiment: Growth inhibition of human UACC62 cells incubated for 48 hrs by sulforhodamine B assay; conditions: UACC-62, 48 h; for CC50: read-out: LC50 (the source's name)
T47D = experiment: Growth inhibition of human T47D cells incubated for 48 hrs by sulforhodamine B assay; conditions: for CC50: read-out: LC50 (the source's name)
HOP-92 = experiment: Growth inhibition of human HOP92 cells incubated for 48 hrs by sulforhodamine B assay; conditions: HOP-92, 48 h
HCT-116 = experiment: Growth inhibition of human HCT116 cells incubated for 48 hrs by sulforhodamine B assay; conditions: HCT-116, 48 h
MOLT-4 = experiment: Growth inhibition of human MOLT4 cells incubated for 48 hrs by sulforhodamine B assay; conditions: MOLT-4, 48 h
OVCAR-8 [1] = experiment: Growth inhibition of human OVCAR8 cells incubated for 48 hrs by sulforhodamine B assay; conditions: OVCAR-8, 48 h; for CC50: read-out: LC50 (the source's name)
KM12 = experiment: Growth inhibition of human KM12 cells assessed as cell growth at 1 uM incubated for 48 hrs by sulforhodamine B assay relative to control; conditions: KM12, 48 h, read-out: Activity
OVCAR-4 = experiment: Growth inhibition of human OVCAR4 cells incubated for 48 hrs by sulforhodamine B assay; conditions: OVCAR-4, 48 h; for CC50: read-out: LC50 (the source's name)
NCI-H23 = experiment: Growth inhibition of human NCI-H23 cells incubated for 48 hrs by sulforhodamine B assay; conditions: NCI-H23, 48 h; for CC50: read-out: LC50 (the source's name)
ACHN = experiment: Growth inhibition of human ACHN cells incubated for 48 hrs by sulforhodamine B assay; conditions: for CC50: read-out: LC50 (the source's name)
HCC 2998 [2] = experiment: Growth inhibition of human HCC2998 cells assessed as cell growth at 1 uM incubated for 48 hrs by sulforhodamine B assay relative to control; conditions: HCC 2998, 48 h, read-out: Activity
A498 = experiment: Growth inhibition of human A498 cells incubated for 48 hrs by sulforhodamine B assay; conditions: A498, 48 h; for CC50: read-out: LC50 (the source's name)
NCI-H322M = experiment: Growth inhibition of human NCI-H322M cells incubated for 48 hrs by sulforhodamine B assay; conditions: for CC50: read-out: LC50 (the source's name)
MDA-MB-231 = experiment: Growth inhibition of human MDA-MB-231 cells incubated for 48 hrs by sulforhodamine B assay; conditions: MDA-MB-231, 48 h; for CC50: read-out: LC50 (the source's name)
NCI-H226 = experiment: Growth inhibition of human NCI-H226 cells incubated for 48 hrs by sulforhodamine B assay; conditions: NCI-H226, 48 h; for CC50: read-out: LC50 (the source's name)
UO-31 = experiment: Growth inhibition of human UO31 cells incubated for 48 hrs by sulforhodamine B assay; conditions: UO-31, 48 h; for CC50: read-out: LC50 (the source's name)
SK-MEL-2 = experiment: Growth inhibition of human SK-MEL-2 cells incubated for 48 hrs by sulforhodamine B assay; conditions: SK-MEL-2, 48 h; for CC50: read-out: LC50 (the source's name)
NCI/ADR-RES = experiment: Growth inhibition of human NCI/ADR-RES cells incubated for 48 hrs by sulforhodamine B assay; conditions: for CC50: read-out: LC50 (the source's name)
SR = experiment: Growth inhibition of human SR cells incubated for 48 hrs by sulforhodamine B assay; conditions: for CC50: read-out: LC50 (the source's name)
SK-MEL-28 = experiment: Growth inhibition of human SK-MEL-28 cells incubated for 48 hrs by sulforhodamine B assay; conditions: SK-MEL-28, 48 h; for CC50: read-out: LC50 (the source's name)
HL-60(TB) = experiment: Growth inhibition of human HL-60(TB) cells assessed as cell growth at 1 uM incubated for 48 hrs by sulforhodamine B assay relative to control; conditions: HL-60, 48 h, read-out: Activity
Hs-578T = experiment: Growth inhibition of human Hs 578T cells incubated for 48 hrs by sulforhodamine B assay; conditions: for CC50: read-out: LC50 (the source's name)
COLO 205 = experiment: Growth inhibition of human COLO205 cells incubated for 48 hrs by sulforhodamine B assay; conditions: COLO 205, 48 h; for CC50: read-out: LC50 (the source's name)
HCC 2998 [3] = experiment: Growth inhibition of human HCC2998 cells incubated for 48 hrs by sulforhodamine B assay; conditions: HCC 2998, 48 h; for CC50: read-out: LC50 (the source's name)
OVCAR-8 [4] = experiment: Growth inhibition of human OVCAR8 cells assessed as cell growth at 1 uM incubated for 48 hrs by sulforhodamine B assay relative to control; conditions: OVCAR-8, 48 h, read-out: Activity
NCI-H460 = experiment: Growth inhibition of human NCI-H460 cells assessed as cell growth at 100 uM incubated for 48 hrs by sulforhodamine B assay relative to control; conditions: NCI-H460, 48 h, read-out: Activity

COc1cc2cc(Oc3ccc(NC(=O)Nc4cc(C(F)(F)F)cc(C(F)(F)F)c4)cc3)c(C)nc2cc1OC
GI50 (UACC-62): 0.56 µM | TGI (UACC-62): 2.09 µM | CC50 (UACC-62): 6.03 µM | GI50 (T47D): 1.48 µM | TGI (T47D): 5.67 µM | CC50 (T47D): 29.1 µM | GI50 (HOP-92): 1.12 µM | LC50 (HOP-92): 40.9 µM | TGI (HOP-92): 3.9 µM | GI50 (HCT-116): 0.589 to 0.59 µM | LC50 (50% lethal concentration) (HCT-116): 5.16 µM | TGI (HCT-116): 1.92 µM | GI50 (MOLT-4): 1.13 µM | LC50 (MOLT-4): > 100 µM | TGI (MOLT-4): 4.04 µM | GI50 (OVCAR-8 [1]): 1.63 µM | TGI (OVCAR-8 [1]): 4.22 µM | CC50 (OVCAR-8 [1]): > 100 µM | growth at 1 µM (KM12): 48% | GI50 (OVCAR-4): 1.22 µM | TGI (OVCAR-4): 4.44 µM | CC50 (OVCAR-4): 80.2 µM | GI50 (NCI-H23): 0.639 to 0.64 µM | TGI (NCI-H23): 3.55 µM | CC50 (NCI-H23): 32.3 µM | GI50 (ACHN): 0.39 µM | TGI (ACHN): 1.69 µM | CC50 (ACHN): 51.6 µM | growth at 1 µM (HCC 2998 [2]): 79% | GI50 (A498): 1.6 µM | TGI (A498): 4.29 µM | CC50 (A498): 7.98 µM | GI50 (NCI-H322M): 1.16 µM | TGI (NCI-H322M): 2.57 µM | CC50 (NCI-H322M): 5.7 µM | GI50 (MDA-MB-231): 1.08 µM | TGI (MDA-MB-231): 2.49 µM | CC50 (MDA-MB-231): > 100 µM | GI50 (NCI-H226): 1.8 µM | TGI (NCI-H226): 3.91 µM | CC50 (NCI-H226): 8.53 µM | GI50 (UO-31): 0.266 to 0.27 µM | TGI (UO-31): 1.65 µM | CC50 (UO-31): 35.1 µM | GI50 (SK-MEL-2): 1.82 µM | TGI (SK-MEL-2): 4.24 µM | CC50 (SK-MEL-2): 9.88 µM | GI50 (NCI/ADR-RES): 1.27 µM | TGI (NCI/ADR-RES): 3.44 µM | CC50 (NCI/ADR-RES): 7.04 µM | GI50 (SR): 1.62 µM | TGI (SR): 5.97 µM | CC50 (SR): > 100 µM | GI50 (SK-MEL-28): 1.19 µM | TGI (SK-MEL-28): 3.09 µM | CC50 (SK-MEL-28): 8.03 µM | growth at 1 µM (HL-60(TB)): 72% | GI50 (Hs-578T): 2.65 µM | TGI (Hs-578T): 6.94 µM | CC50 (Hs-578T): 8.07 µM | GI50 (COLO 205): 1.79 µM | TGI (COLO 205): 3.58 µM | CC50 (COLO 205): 7.18 µM | GI50 (HCC 2998 [3]): 1.53 µM | TGI (HCC 2998 [3]): 3.15 µM | CC50 (HCC 2998 [3]): 6.49 µM | growth at 1 µM (OVCAR-8 [4]): 76% | growth at 100 µM (NCI-H460): -73%

COc1cc2cc(Oc3ccc(NC(=O)Nc4ccc(Cl)c(Cl)c4)cc3)c(C)nc2cc1OC
GI50 (UACC-62): 3.33 µM | TGI (UACC-62): 19.2 µM | CC50 (UACC-62): 71.2 µM | GI50 (T47D): 2.7 µM | TGI (T47D): 10.1 µM | CC50 (T47D): 84.7 µM | GI50 (HOP-92): 2.04 µM | LC50 (HOP-92): 14.2 µM | TGI (HOP-92): 4.88 µM | GI50 (HCT-116): 2.26 µM | LC50 (50% lethal concentration) (HCT-116): 32.6 µM | TGI (HCT-116): 10.5 µM | GI50 (MOLT-4): 3.02 µM | LC50 (MOLT-4): > 100 µM | TGI (MOLT-4): 22.8 µM | GI50 (OVCAR-8 [1]): 3.54 µM | TGI (OVCAR-8 [1]): 12.9 µM | CC50 (OVCAR-8 [1]): 36 µM | growth at 1 µM (KM12): 93% | GI50 (OVCAR-4): 2.67 µM | TGI (OVCAR-4): 8.3 µM | CC50 (OVCAR-4): 35.2 µM | GI50 (NCI-H23): 3.36 µM | TGI (NCI-H23): 15.9 µM | CC50 (NCI-H23): 76.3 µM | GI50 (ACHN): 3 µM | TGI (ACHN): 12.1 µM | CC50 (ACHN): 69.1 µM | growth at 1 µM (HCC 2998 [2]): 96% | GI50 (A498): 1.95 µM | TGI (A498): 7.93 µM | CC50 (A498): 74.9 µM | GI50 (NCI-H322M): 8.66 µM | TGI (NCI-H322M): 60.3 µM | CC50 (NCI-H322M): > 100 µM | GI50 (MDA-MB-231): 2.46 µM | TGI (MDA-MB-231): 12 µM | CC50 (MDA-MB-231): 34.6 µM | GI50 (NCI-H226): 3.12 µM | TGI (NCI-H226): 8.68 µM | CC50 (NCI-H226): 35.8 µM | GI50 (UO-31): 3.44 µM | TGI (UO-31): 12.6 µM | CC50 (UO-31): 79.6 µM | GI50 (SK-MEL-2): 3 µM | TGI (SK-MEL-2): 6.55 µM | CC50 (SK-MEL-2): 20.6 µM | GI50 (NCI/ADR-RES): 2.6 µM | TGI (NCI/ADR-RES): 16.9 µM | CC50 (NCI/ADR-RES): > 100 µM | GI50 (SR): 3.1 µM | TGI (SR): 10.3 µM | CC50 (SR): > 100 µM | GI50 (SK-MEL-28): 3.77 µM | TGI (SK-MEL-28): 14.7 µM | CC50 (SK-MEL-28): 51.2 µM | growth at 1 µM (HL-60(TB)): 107% | GI50 (Hs-578T): 3.53 µM | TGI (Hs-578T): 9.68 µM | CC50 (Hs-578T): > 100 µM | GI50 (COLO 205): 2.75 µM | TGI (COLO 205): 6.5 µM | CC50 (COLO 205): 21.5 µM | GI50 (HCC 2998 [3]): 5.54 µM | TGI (HCC 2998 [3]): > 100 µM | CC50 (HCC 2998 [3]): > 100 µM | growth at 1 µM (OVCAR-8 [4]): 96% | growth at 100 µM (NCI-H460): -76%
